Measurements published in US9918966B2, “Anti-cancer compositions and methods” (The Penn State Research Foundation, priority 2013, dated 2018).

Key:
[1] = Toxicity assessments: blood markers and H&E of vital organs; format: in vivo
Method: Four to six week old athymic-Foxn1^nu nude mice (Harlan Sprague Dawley, IN), are treated with either vehicle control or selenocoxib-1-GSH (n=5) as described in tumor kinetics studies. At the end of treatment, blood is collected from each sacrificed animal in a plasma separator tube with lithium heparin (BD Microtainer) following cardiac puncture and analyzed for ALKP (Alkaline phosphatase), ALT (Alanine aminotransferase), AST (Aspartate aminotransferase), ALB (Total albumin), TBIL (Total bilirubin), CREA (Creatinine), BUN (Blood urea nitrogen), CHOL (Total cholesterol), TRIG (Total triglyceride) and GLU (Glucose) levels to ascertain possible liver, heart, kidney, and pancreas related toxicity. A portion of vital organs, liver, heart, kidney, pancreas, and spleen-from each animal is formalin-fixed and paraffin-embedded to examine toxicity-associated changes in cell morphology and tissue organization following H&E staining as described in Nguyen N, et al. Cancer Prev Res (Phila) 2011; 4: 248-58.

Caco-2 (Colon) = assay: IC50 for killing cancer cells; format: cell-based; settings: Homo sapiens
Description: (§1) Therapeutic universality of selenocoxib-1-GSH for killing cancer cells is examined by treating pancreatic (MiaPaca-2), breast (MDA-MB-231), prostate (PC-3) or sarcoma (HT-1080) and colon (Caco2) cell. lines with the drug and establishing the IC50 for each cell line, Table III. Selenocoxib-1-GSH kills the various cancer cell lines at 2-3-fold lower concentrations than normal fibroblast cells.

PC-3 (Prostate) = assay: IC50 for killing cancer cells; format: cell-based; settings: Homo sapiens
Description: as §1

MDA-MB-231 (Breast) = assay: IC50 for killing cancer cells; format: cell-based; settings: Homo sapiens
Description: as §1

HT-1080 (Fibro sarcoma) = assay: IC50 for killing cancer cells; format: cell-based; settings: Homo sapiens
Description: as §1

MiaPaca-2 (Pancreas) = assay: IC50 for killing cancer cells; format: cell-based; settings: Homo sapiens, MIA PaCa-2
Description: as §1

[2] = system: normal human melanocytes or fibroblast cells
Method: (§2) Cell viability, proliferation, apoptosis and cell cycle analysis: Viability and IC50 (μmol/L) of normal human melanocytes, fibroblast and melanoma cells following treatment with inhibitors are measured using the MTS assay (Promega, Madison, Wis.) described in Sharma A, et al., Clin Cancer Res 2009; 15:1674-85; and Madhunapantula S V, et al., Mol Cancer Ther 2008; 7:1297-308. […] IC50 values for each inhibitor in μmol/L for respective cell lines are measured from three independent experiments using GraphPad Prism version 4.01 (GraphPad Software, La Jolla, Calif.).

UACC 903 melanoma cells [3] = assay: Reactive oxygen species (ROS) assay; format: cell-based, human; settings: 5, 10, 15 and 20 μmol/L, 24 hours, compared to celecoxib and selenocoxib-1
Method: (§3) Intracellular ROS are monitored according to a procedure described in detail in Smasundaram et al., Cancer Res., 62:3868-3875, 2002. […] After 24 hours treatment, total cells (floating and adherent) are collected in ice-cold phosphate-buffered saline and 5×10^3 cells/well placed in 100 microliters culture medium in a 96-well plate containing 10 micromoles/liter 2′,7′-dichlorfluorescein-diacetate (commercially available from Sigma, St. Louis, Mo.) and incubated at 37° C. for 30 minutes. The amount of ROS present compared to DMSO vehicle treated cells was represented in arbitrary units.
(§4) Selenocoxib-1-GSH inhibits the generation of ROS.

1205 Lu melanoma cells [4] = assay: Reactive oxygen species (ROS) assay; format: cell-based, human; settings: 5, 10, 15 and 20 μmol/L, 24 hours, compared to celecoxib and selenocoxib-1
Method: as §3, §4

UACC 903 melanoma cells [5] = assay: Western blot analysis; format: cell-based, human
Description: (§5) Cell lysates are harvested and processed as described in Sharma A et al., Cancer Res 2006, 66:8200-9. […] Protein lysates are collected for Western blotting. Blots are probed with total and phospho-Akt (Ser473), phospho-PRAS40 (Thr246), phospho-Erk1/2 (Thr202/Tyr204), total and Phospho-Mek1/2 (Ser217) and cleaved PARP from Cell Signaling Technology (Danvers, Mass.). Total PRAS40 from Invitrogen (Carlsbad, Calif.). Total Erk, cyclin D1, p27, Alpha-enolase and secondary antibodies conjugated with horseradish peroxidase from Santa Cruz Biotechnology (Santa Cruz Biotechnology, Santa Cruz, Calif.). COX-1 and COX-2 antibodies were obtained from Cayman Chemical Company, Ann Arbor, Mich. Immunoblots are developed using the enhanced chemiluminescence detection system (Amersham Pharmacia Biotech, Piscataway, N.J.).

1205 Lu melanoma cells [6] = assay: Western blot analysis; format: cell-based, human
Description: as §5

[7] = system: 1205 Lu metastatic melanoma cells; assay: cells; settings: Homo sapiens
Method: as §2
(§6) The number of viable cells is measured using MTS and percentage decrease in viability calculated. IC50 values for each inhibitor in μmol/L for respective cell lines are measured from three independent experiments using GraphPad Prism version 4.01 (GraphPad Software, La Jolla, Calif.).

[8] = system: UACC 903 metastatic melanoma cells; assay: cells; settings: Homo sapiens
Method: as §2, §6

[9] = system: FF2441 human fibroblast cells; assay: Cell viability, MTS assay; format: cell-based
Method: as §2, §6

[10] = system: WM115 vertical growth phase melanoma cells; assay: Cell viability, MTS assay; format: cell-based; settings: Homo sapiens, WM-115
Method: as §2, §6

[11] = system: WM35 radial growth phase melanoma cells; assay: Cell viability, MTS assay; format: cell-based; settings: Homo sapiens
Method: as §2, §6

[12] = system: FOM103 normal human melanocytes; assay: Cell viability, MTS assay; format: cell-based; settings: Melanocyte
Method: as §2, §6

With `NC(CCC(=O)NC(CS[Se]Cc1cc(-c2ccccc2)n(-c2ccc(S(N)(=O)=O)cc2)n1)C(=O)NCC(=O)O)C(=O)O` (stereo not drawn) [Selenocoxib-1-GSH, selenocoxib-1-glutathione] the “H&E stained tissue sections of liver, heart, lung, kidney or spleen” value ([1]; at the end of treatment, versus DMSO vehicle) was “no changes in the morphology or architecture”, the “levels of blood markers for major organ related toxicity (ALKP, ALT, AST, ALB, TBIL, CREA, BUN, CHOL, TRIG, GLU)” value ([1]; mouse, in vivo) was “negligible differences compared to controls” and the IC50 (Caco-2 (Colon)) was 16.1 ± 0.87 µM. The IC50 (PC-3 (Prostate)) was 16.4 ± 2.11 µM, the IC50 (MDA-MB-231 (Breast)) was 15.4 ± 2.51 µM and the IC50 (HT-1080 (Fibro sarcoma)) was 9.1 ± 1.89 µM. For the same molecule, the IC50 (MiaPaca-2 (Pancreas)) was 13.3 ± 1.01 µM, the “toxicity on normal cells relative to melanoma cells” value [2] was “significantly lower toxicity on normal cells” and the ROS (UACC 903 melanoma cells [3]) was “more dramatically decreased ROS”. The ROS (1205 Lu melanoma cells [4]) was “more dramatically decreased ROS”, the “cleaved PARP protein” value (UACC 903 melanoma cells [5]; UACC 903) was “elevates levels of cleaved PARP protein” and the “expression of cyclin-D1” value (UACC 903 melanoma cells [5]; UACC 903) was “inhibits the expression of cyclin-D1”. For the same molecule, the “levels of p27” value (UACC 903 melanoma cells [5]; UACC 903) was “increases the levels of p27”, the pErk1/2 levels (UACC 903 melanoma cells [5]; UACC 903, 15 and 20 μmol/L) was “increased pErk1/2 levels” and the pPRAS40 (UACC 903 melanoma cells [5]; UACC 903, 72 h) was “reduces expression”. The Akt phosphorylation (UACC 903 melanoma cells [5]; UACC 903, 72 h, increasing concentrations, compared to celecoxib) was “inhibited the Akt phosphorylation in a dose dependent manner”, the “cleaved PARP protein” value (1205 Lu melanoma cells [6]) was “elevates levels of cleaved PARP protein” and the “expression of cyclin-D1” value (1205 Lu melanoma cells [6]) was “inhibits the expression of cyclin-D1”. For the same molecule, the “levels of p27” value (1205 Lu melanoma cells [6]) was “increases the levels of p27”, the pErk1/2 levels (1205 Lu melanoma cells [6]; 15 and 20 μmol/L) was “increased pErk1/2 levels” and the pPRAS40 (1205 Lu melanoma cells [6]; 72 h) was “reduces expression”. The Akt phosphorylation (1205 Lu melanoma cells [6]; 72 h, increasing concentrations, compared to celecoxib) was “inhibited the Akt phosphorylation in a dose dependent manner”, the IC50 ([7]; 24 h) was 24.6 ± 2.2 µM and the IC50 ([7]; 48 h) was 17.2 ± 1.6 µM. It also gave an IC50 ([7]; 72 h) of 10.6 ± 2.6 µM, a cytotoxicity at 12.5 µM ([7]; 72 h, read-out: decrease in cell viability) of 40 to 60% and an IC50 ([8]; UACC-903, 24 h) of 30.9 ± 2.8 µM. The IC50 ([8]; UACC-903, 48 h) was 20.6 ± 1.7 µM, the IC50 ([8]; UACC-903, 72 h) was 14.2 ± 1.2 µM and the cytotoxicity at 12.5 µM ([8]; UACC-903, 72 h, read-out: decrease in cell viability) was 40 to 60%. The IC50 ([9]; FF2441, 24 h) was > 100 µM, the IC50 ([9]; FF2441, 48 h) was 75.5 ± 5.6 µM and the IC50 ([9]; FF2441, 72 h) was 36.3 ± 5.6 µM. It also gave an IC50 ([10]; WM115, 24 h) of 30.1 ± 3.3 µM, an IC50 ([10]; WM115, 48 h) of 5.8 ± 0.9 µM and an IC50 ([10]; WM115, 72 h) of 3.1 ± 0.4 µM. For the same molecule, the IC50 ([11]; WM35, 24 h) was 52.6 ± 3.8 µM, the IC50 ([11]; WM35, 48 h) was 4.1 ± 0.8 µM and the IC50 ([11]; WM35, 72 h) was 2.7 ± 0.4 µM. It also gave an IC50 ([12]; FOM103, 24 h) of 66.3 ± 3 µM, an IC50 ([12]; FOM103, 48 h) of 53.4 ± 4.3 µM and an IC50 ([12]; FOM103, 72 h) of 41.2 ± 3.2 µM.
